Laboratory results from US4663340A, “Alpha-adrenoreceptor agonistic 2-[(2-cyclopropyl-5-methyl- or 2-cyclopropyl-5-chlorophenoxy)methyl]-2-imidazolines” (priority 1984, dated 1987).
Entries after “also recorded” stand apart in the source; their conditions may differ.

Columns and labels:
[1] = system: postsynaptic α1-adrenoceptor; experiment: Vasoconstrictor (hypertensive) dose-response in anaesthetized pithed rat, i.v.; type: in vivo, Wistar rat; conditions: for Relative power towards Cirazoline: Table I; for Relative power towards Cirazoline / ED50 / potency relative to Cirazoline / potency relative to Fenoxazoline: pithed rat; for ED50: dose of base inducing 50% of maximal response; for ED50 (before antagonists): Table II, before administration of antagonists
Text: (§1) (1) The vaso-constrictor properties and potency of the compounds (I) object of the present invention have been investigated and quantified in the anaesthetized pithed rat by determination of their dose-[…] response curves after intravenous administration, according to the technique described by Shipley and Tilden (Proceedings of Society of Experimental Biology, 1947, 64, pages 453-455). This technique allows assessment of the postsynaptic α-adrenoceptor agonist properties of a drug. […] For each of these drugs, log of cumulative doses-hypertensive response curves after intravenous administration have been drawn in groups of eight Wistar rats, anaesthetized, pithed, bilaterally vagotomized, atropinized and treated with d-tribocurarine. ED50 s (doses in mg/kg of the base inducing 50% of the maximal response) were then calculated for each drug and compared to those of the reference compounds.
Table I reports the values of these ED50 s. It appears from this table that compounds ND 83201 and ND 83204 are the most powerful vaso-constrictor agents, their potency being about 1.75 times that of Cirazoline and three times that of Fenoxazoline.

[2] = system: postsynaptic α1-adrenoceptor; conditions: literature; cited from earlier work
[3] = system: postsynaptic α2-adrenoceptor; experiment: Vasoconstrictor effect in pithed rat after specific postsynaptic α2-adrenoceptor antagonist yohimbine; type: in vivo, Wistar rat; conditions: for ED50 after yohimbine: I.V.; for ED50 after yohimbine / antagonism of vasoconstrictor effect by yohimbine / ED50 after / ED50 before yohimbine: yohimbine 60 μg/kg/min./5 mins.; for antagonism of vasoconstrictor effect by yohimbine / postsynaptic α2-adrenoceptor agonist properties: in words
Text: as §1
(§2) For each of the three drugs log of cumulative doses-hypertensive response curves after intravenous administration have been drawn and their ED50 s (in μg per kg) were calculated before and after administration of the antagonists in groups of 8 animals each.

[4] = system: α1-adrenoceptor; experiment: Vasoconstrictor effect in pithed rat after reserpine pre-treatment (direct action); type: in vivo, Wistar rat; conditions: except in very high doses
Text: as §1
(a) ND 83201 is a directly acting α1 -adrenoceptor agonist.

[5] = system: postsynaptic α1-adrenoceptor; experiment: Vasoconstrictor effect in pithed rat after specific postsynaptic α1-adrenoceptor antagonist prazosine; type: in vivo, Wistar rat; conditions: for ED50 after prazosine: I.V.
Text: as §1, §2

[6] = Stability of aqueous solution (hydrolysis of the imidazoline cycle); type: physicochemical; conditions: 1 per mill aqueous solution, room temperature
[7] = system: presynaptic α2-adrenoceptor; experiment: Presynaptic α2-adrenoceptor agonist activity: reduction of induced submaximal tachycardia in pithed rat; type: in vivo, Wistar rat; conditions: for effect on induced submaximal tachycardia / presynaptic α2-adrenoceptor agonist activity: electrically stimulated spinal cord
[8] = system: presynaptic α2-adrenoceptor; experiment: Presynaptic α2-adrenoceptor antagonist activity: restoration of tachycardia reduced by clonidine in pithed rat; conditions: for Heartbeat frequency under electric stimulation (supramaximal tachycardia): before clonidine and tested substance; for Heartbeat frequency under electric stimulation and after clonidine: clonidine 40 μg/kg, I.V., before tested substance; for restoration of submaximal tachycardia / presynaptic α2-adrenoceptor antagonist activity: in words, after clonidine 40 μg/kg I.V.
[9] = Solubility in water; type: physicochemical; conditions: hydrochloride
[10] = system: β-adrenoceptor; experiment: Vasoconstrictor ED50 after β-adrenoceptor antagonist pretreatment (β-adrenoceptor postsynaptic agonist activity); type: in vivo, Wistar rat; conditions: propranold 150 μg/kg/min/5 min
Text: (d) ND 83201 has no β-adrenoceptor postsynaptic agonist activity.

SMILES | Relative power towards Cirazoline [1] | ED50 [1] [µg/kg] | ED50 (before antagonists) [1] [µg/kg] | ED50 after yohimbine [3] [µg/kg] | antagonism of vasoconstrictor effect by yohimbine [3] | ED50 after / ED50 before yohimbine [3] | effect of reserpine pre-treatment on vasoconstrictor effects [4] | ED50 after prazosine ([5]; prazosine 20 μg/kg/min./5 min.) [µg/kg] | ED50 after / ED50 before prazosine ([5]; prazosine 20 μg/kg/min./5 min.) | effect on induced submaximal tachycardia / presynaptic α2-adrenoceptor agonist activity [7] | Heartbeat frequency under electric stimulation (supramaximal tachycardia) [8] | Heartbeat frequency under electric stimulation and after clonidine [8] | restoration of submaximal tachycardia / presynaptic α2-adrenoceptor antagonist activity [8] | further results
CCCCCc1ccc(C2CC2)c(OCC2=NCCN2)c1 [ND 83 203, (5'-n-pentyl-2'-cyclopropyl)-2-phenyloxymethyl-Δ2-imidazoline] | 0.015 | 74.182 ± 6.667 | – | – | – | – | – | – | – | – | – | – | – | –
CC(C)c1ccccc1OCC1=NCCN1 [Fenoxazoline] | 0.62 | 1.790 ± 0.147 | 1.790 ± 0.147 | 1.804 ± 0.237 | almost not antagonized by yohimbine | 1.01 | not, except in very high doses, modified | 16.205 ± 1.240 | 9.05 | – | – | – | – | known vasoconstrictor / postsynaptic α1-adrenoceptor agonist activity [2]: postsynaptic α1 -adrenoceptor agonist
c1ccc(C2CC2)c(OCC2=NCCN2)c1 [Cirazoline, (2'-cyclopropyl)-2-phenyloxymethyl-Δ2-imidazoline] | 1 | 1.105 ± 0.132 | 1.105 ± 0.132 | 1.180 ± 0.108 | almost not antagonized by yohimbine | 1.05 | not, except in very high doses, modified | 8.568 ± 0.721 | 7.75 | completey devoid of any presynaptic α2 -adrenoceptor agonist activity and no | 452.1 ± 10.5 | 395.7 ± 14.1 | neither and no effect and no | known vasoconstrictor / postsynaptic α1-adrenoceptor agonist activity [2]: the most powerful and specific postsynaptic α1-adrenoceptor agonist known up to now; also recorded: powerful nasal vasoconstrictor; postsynaptic α2-adrenoceptor agonist properties [3]: no postsynaptic α2-adrenoceptor agonist; appearance of hydrolysis product (amino-amide (V)) in aqueous solution [6]: after a few days the appearance of the cleaving product by hydrolysis of the imidazoline cycle; nature of agonist effect (postsynaptic α1-adrenoceptor) ([5]; in words): specific and direct postsynaptic α1 -adrenoceptor agonist effects
Clc1ccc(C2CC2)c(OCC2=NCCN2)c1 [ND 83 204, (5'-chloro-2'-cyclopropyl)-2-phenoxymethyl-Δ2-imidazoline] | 1.72 | 0.644 ± 0.050 | – | – | – | – | – | – | – | – | – | – | – | solubility in water [9]: not very soluble in water; potency relative to Cirazoline [1]: about 1.75 times; potency relative to Fenoxazoline [1]: three; appearance of hydrolysis product (amino-amide (V)) in aqueous solution [6]: even after one month, no trace of hydrolysis is yet detectable
Clc1cccc(Cl)c1N=C1NCCN1 [clonidine] | – | – | – | – | – | – | – | – | – | reduced the submaximal tachycardia | – | – | – | antagonism of clonidine effect by yohimbine ([7]; submaximal tachycardia): effect antagonized by yohimbine
Cc1ccc(N(CC2=NCCN2)c2cccc(O)c2)cc1 [Phentolamine] | – | – | – | – | – | – | – | – | – | – | 455.6 ± 11.5 | 411.2 ± 8.9 | resores sub-maximal tachycardia | –
Cc1ccc(C2CC2)c(OCC2=NCCN2)c1 [ND 83201, (5'-methyl-2'-cyclopropyl)-2-phenyloxymethyl-Δ2-imidazoline] | 1.75 | 0.630 ± 0.060 | 0.630 ± 0.060 | 0.805 ± 0.076 | almost not antagonized by yohimbine | 1.25 | not, except in very high doses, modified | 7.284 ± 0.974 | 11.56 | completey devoid of any presynaptic α2 -adrenoceptor agonist activity and no | 448.7 ± 7.7 | 391.2 ± 5.9 | no presynaptic α2 -adrenoceptor antagonist activity and no effect and no | ED50 change after β-adrenoceptor antagonist / β-adrenoceptor postsynaptic agonist activity [10]: not modified; solubility in water [9]: not very soluble in water; potency relative to Cirazoline [1]: about 1.75 times; potency relative to Fenoxazoline [1]: three; postsynaptic α2-adrenoceptor agonist properties [3]: no postsynaptic α2-adrenoceptor agonist; effect on induced submaximal tachycardia / presynaptic α2-adrenoceptor agonist activity ([7]; listed as ND 83 201): no presynaptic α2 -adrenoceptor agonist activity; nature of agonist effect (postsynaptic α1-adrenoceptor) ([5]; in words): specific and direct postsynaptic α1 -adrenoceptor agonist effects; antagonism of vasoconstrictor effect by prazosine ([5]; in words, prazosine 20 μg/kg/min./5 min.): strongly antagonized by prazosine and even slightly more than those of Cirazoline and Fenoxazoline
Brc1ccc(C2CC2)c(OCC2=NCCN2)c1 [ND 83 202, (5'-bromo-2'-cyclopropyl)-2-phenoxymethyl-Δ2-imidazoline] | 0.25 | 4.422 ± 0.329 | – | – | – | – | – | – | – | – | – | – | – | –
